Literature values in patent publication US20210181182A1, “METHOD FOR IDENTIFICATION OF PERTURBAGENS OF PARTICULAR BIOLOGICAL PROCESSES AND CELL SYSTEMS WITHIN LIVING CELLS” (priority 2018, published 2021).
Where a name gives a salt, the structure may show the parent alone. Read-outs that look alike come from different tables or passages of the source. Marks after values point to notes of the source that are not given here.

Test system: mitochondria membrane potential
Conditions: cited from earlier work
[1] = HepG2, 1-hour incubation at concentrations below 60 μM

CCOc1cc(C(C)(C)C)ccc1C1COC(c2c(F)cccc2F)=N1 (stereo not drawn) [Etoxazole]
MMP assay hitCall [1]: 1

CCc1cccc(CC)c1N(COC)C(=O)CCl [Alachlor]
MMP assay hitCall [1]: 0*

CCOCn1c(-c2ccc(Cl)cc2)c(C#N)c(Br)c1C(F)(F)F [Chlorfenapyr]
MMP assay hitCall [1]: 1

Fc1cccc(Cl)c1CCl [1-Chloro-2-(chloromethyl)-3-fluorobenzene]
MMP assay hitCall [1]: 0

C#CCN1C(=O)COc2cc(F)c(N3C(=O)C4=C(CCCC4)C3=O)cc21 [Flumioxazin]
MMP assay hitCall [1]: 0

CCOc1cc(Oc2ccc(C(F)(F)F)cc2Cl)ccc1[N+](=O)[O-] [Oxyfluorfen]
MMP assay hitCall [1]: 1

COc1ccc(S(=O)(=O)N2C(=O)[C@@](c3ccccc3OC)(N3C[C@H](O)C[C@H]3C(=O)N(C)C)c3cc(Cl)ccc32)c(OC)c1 [Nelivaptan]
MMP assay hitCall [1]: 0

CO/N=C(/C(=O)OC)c1ccccc1COc1ccccc1C [Kresoxim-methyl]
MMP assay hitCall [1]: 0*

C=CCc1ccc(O)c(OC)c1 [Eugenol]
MMP assay hitCall [1]: 0*

CCC(C)Nc1c([N+](=O)[O-])cc(C(C)(C)C)cc1[N+](=O)[O-] (stereo not drawn) [Butralin]
MMP assay hitCall [1]: 0

C#CC(C)(C)NC(=O)c1cc(Cl)cc(Cl)c1 [Propyzamide]
MMP assay hitCall [1]: 0

CN(C)c1ccc(N=O)cc1 [N,N-Dimethyl-4-nitrosoaniline]
MMP assay hitCall: 0

CSC1=N[C@@](C)(c2ccccc2)C(=O)N1Nc1ccccc1 [Fenamidone]
MMP assay hitCall [1]: 1

CC(C)Nc1ccc(Nc2ccccc2)cc1 [N-Isopropyl-N′-phenyl-p-phenylenediamine]
MMP assay hitCall: 0

CCOC(=O)Nc1cccc(OC(=O)Nc2ccccc2)c1 [Desmedipham]
MMP assay hitCall [1]: 1

CCCCN(CC)c1c([N+](=O)[O-])cc(C(F)(F)F)cc1[N+](=O)[O-] [Benfluralin]
MMP assay hitCall [1]: 0

CNC(=O)Oc1cccc(N=CN(C)C)c1 [Formetanate hydrochloride]
MMP assay hitCall [1]: 0

C=CCOC(=O)/C=C\C(=O)OCC=C [Diprop-2-en-1-yl (2Z)-but-2-enedioate]
MMP assay hitCall [1]: 0

c1ccc(Nc2ccccc2)cc1 [Diphenylamine]
MMP assay hitCall [1]: 1

CC(C)(C)c1cc(O)c(C(C)(C)C)cc1O [2,5-Di-tert-butylbenzene-1,4-diol]
MMP assay hitCall [1]: 1

Oc1c(Br)cc(Br)cc1Br [2,4,6-Tribromophenol]
MMP assay hitCall [1]: 1

CC(C)N(C(=O)COc1nnc(C(F)(F)F)s1)c1ccc(F)cc1 [Flufenacet]
MMP assay hitCall [1]: 0

CCOC(=O)NCCOc1ccc(Oc2ccccc2)cc1 [Fenoxycarb]
MMP assay hitCall [1]: 0*

CN(C)NC(=O)CCC(=O)O [Daminozide]
MMP assay hitCall: 0

O=c1c(O)c(-c2ccc(O)cc2)oc2cc(O)cc(O)c12 [Kaempferol]
MMP assay hitCall [1]: 1

Oc1cc(Cl)ccc1Oc1ccc(Cl)cc1Cl [Triclosan]
MMP assay hitCall [1]: 1

CC(C)(C)C(=O)CCl [1-Chloro-3,3-dimethyl-butan-2-one]
MMP assay hitCall [1]: 0

O=P(Oc1ccccc1)(Oc1ccccc1)Oc1ccccc1 [Triphenyl phosphate]
MMP assay hitCall [1]: 1

O=C(OC1CCCCC1)c1ccccc1C(=O)OC1CCCCC1 [Dicyclohexyl phthalate]
MMP assay hitCall [1]: 1

CCCc1ccc(O)cc1 [4-Propylphenol]
MMP assay hitCall [1]: 1

CC1=C(C(=O)Nc2ccccc2)S(=O)(=O)CCO1 [Oxycarboxin]
MMP assay hitCall [1]: 0

CCOC(=O)CC(SP(=S)(OC)OC)C(=O)OCC (stereo not drawn) [Malathion]
MMP assay hitCall [1]: 0*

CCCCCCCCCCCC[N+](C)(C)C.[Cl-] [Dodecyltrimethylammonium chloride]
MMP assay hitCall [1]: 0*

Cc1ccc(S(=O)(=O)NC(=O)NN2CCCCCC2)cc1 [Tolazamide, reference compound]
MMP assay hitCall [1]: 0

CC(C)(C)C(O)C(Oc1ccc(Cl)cc1)n1cncn1 (stereo not drawn) [Triadimenol]
MMP assay hitCall [1]: 0

N#Cc1cc(Br)c(O)c(Br)c1 [Bromoxynil]
MMP assay hitCall [1]: 1

CCOP(=S)(OCC)OC(Cl)C(Cl)(Cl)Cl (stereo not drawn) [Chlorethoxyfos]
MMP assay hitCall [1]: 1

Cl.Nc1ccc(-c2ccccc2)cc1 [4-Biphenylamine hydrochloride]
MMP assay hitCall [1]: 0

CCCN(CC)CC1COC2(CCC(C(C)(C)C)CC2)O1 (stereo not drawn) [Spiroxamine]
MMP assay hitCall [1]: 0

CCCCCCCCCCCC[N+](C)(C)C.[Br-] [Dodecyltrimethylammonium bromide]
MMP assay hitCall [1]: 1

Oc1ccc(Cl)cc1Cc1ccccc1 [Clorophene]
MMP assay hitCall [1]: 1

CC(COc1ccc(Oc2ccccc2)cc1)Oc1ccccn1 (stereo not drawn) [Pyriproxyfen]
MMP assay hitCall [1]: 0

CCC(C)c1cc([N+](=O)[O-])cc([N+](=O)[O-])c1OC(=O)C=C(C)C (stereo not drawn) [Binapacryl]
MMP assay hitCall [1]: 1

C=Cc1ccc(OC(C)=O)cc1 [4-Ethenylphenyl acetate]
MMP assay hitCall [1]: 0

C=CCc1ccc(OC(=O)Cc2ccccc2)c(OC)c1 [Eugenyl phenylacetate]
MMP assay hitCall [1]: 0

C[C@@H]1[C@@H](c2ccc(Cl)cc2)SC(=O)N1C(=O)NC1CCCCC1 [Hexythiazox]
MMP assay hitCall [1]: 1

Oc1c(Cl)cc(Cl)cc1Sc1cc(Cl)cc(Cl)c1O [Bithionol, reference compound]
MMP assay hitCall [1]: 1

COC(=O)c1ccccc1S(=O)(=O)NC(=O)Nc1nc(C)nc(OC)n1 [Metsulfuron-methyl]
MMP assay hitCall [1]: 0

CCC(C)(C)c1cc(O)c(C(C)(C)CC)cc1O [2,5-Bis(2-methylbutan-2-yl)benzene-1,4-diol]
MMP assay hitCall [1]: 1

CC(=O)O[C@]1(C(C)=O)CC[C@H]2[C@@H]3C=C(Cl)C4=CC(=O)[C@@H]5C[C@@H]5[C@]4(C)[C@H]3CC[C@@]21C [Cyproterone acetate, reference compound]
MMP assay hitCall [1]: 1

c1cc(OCC2CO2)ccc1Cc1ccc(OCC2CO2)cc1 (stereo not drawn) [Bis[4-(glycidyloxy)phenyl]methane]
MMP assay hitCall [1]: 0

CCOP(=S)(OCC)Oc1ccc([N+](=O)[O-])cc1 [Parathion]
MMP assay hitCall [1]: 1

O=C(Nc1cccc(C(F)(F)F)c1)c1cc(Br)cc(Br)c1O [Fluorosalan]
MMP assay hitCall [1]: 1

CC[C@H](C)C(=O)O[C@H]1C[C@@H](C)C=C2C=C[C@H](C)[C@H](CC[C@@H]3C[C@@H](O)CC(=O)O3)[C@H]21 [Lovastatin, reference compound]
MMP assay hitCall [1]: 1

CC(C)CC(C)(c1ccc(O)cc1)c1ccc(O)cc1 [4,4′-(4-Methylpentane-2,2-diyl)diphenol]
MMP assay hitCall [1]: 1

Oc1ccc(-c2ccccc2)cc1Cl [2-Chloro-4-phenylphenol]
MMP assay hitCall [1]: 1

CCCCCCCCCc1ccc(O)cc1 [4-Nonylphenol]
MMP assay hitCall [1]: 1

CC1(C)NC(=O)N(c2ccc([N+](=O)[O-])c(C(F)(F)F)c2)C1=O [Nilutamide, reference compound]
MMP assay hitCall [1]: 0*

N#Cc1nc(Cl)c(Cl)c(Cl)c1Cl [3,4,5,6-Tetrachloro-2-pyridinecarbonitrile]
MMP assay hitCall [1]: 1

C1N2CN3CN1CN(C2)C3 [Methenamine, reference compound]
MMP assay hitCall [1]: 0

CCOC(=O)/C=C\C(=O)OCC [Diethyl maleate]
MMP assay hitCall [1]: 0*

CC(C)=CC1C(C(=O)OCN2C(=O)C3=C(CCCC3)C2=O)C1(C)C (stereo not drawn) [Tetramethrin]
MMP assay hitCall [1]: 1

CC1COc2ccccc2N1C(=O)C(Cl)Cl (stereo not drawn) [Benoxacor]
MMP assay hitCall [1]: 0
